The series is described as follows: TIMS collisional cross section (CCS, N2) of the lipid ion; higher = larger ion cross section. The following applies: ionization mode: positive, one isomer drawn.

± gives the standard deviation of the averaged measurements.

In the case of `CC/C=C\C/C=C\C/C=C\C/C=C\C/C=C\CCCC(=O)O[C@@H](CO)COC(=O)CCCCCCCCCCCCCCC` [DG 16:0_20:5_0:0] (ion (formula + adduct): [C39H66O5+NH4] 1+), where the note is “sample type: HeLa”, the “TIMS collisional cross section” value was 261.5 Å².
As to `CC/C=C\C/C=C\C/C=C\C/C=C\C/C=C\C/C=C\CCC(=O)O[C@H](COC(=O)CCCCCCCCCCCCCCCCC)COP(=O)([O-])OCC[N+](C)(C)C` [PC 18:0_22:6] (ion (formula + adduct): [C48H84NO8P+H] 1+), under “sample type: Liver”, the “TIMS collisional cross section” value came to 297.9 Å².
`CC/C=C\C/C=C\C/C=C\C/C=C\C/C=C\CCCC(=O)OC[C@@H](COC(=O)CCCCCCCCCCCCCCC)OC(=O)CCCCCCC/C=C\C/C=C\CCCCC` [TG 16:0_18:2_20:5] (ion (formula + adduct): [C57H96O6+NH4] 1+): the “TIMS collisional cross section” value by setting is: (sample type: Liver) 318.1 Å²; (sample type: plasma) 319.9 Å².
Turning to `CCCCC/C=C\C/C=C\C/C=C\CCCCC(=O)O[C@H](COC(=O)CCCCCCC/C=C\C/C=C\CCCCC)COP(=O)([O-])OCC[N+](C)(C)C` [PC 18:2_18:3] (ion (formula + adduct): [C44H78NO8P+H] 1+), the “TIMS collisional cross section” value (sample type: plasma) is on record as 283.6 Å².
Regarding `CCCCCCCC/C=C\CCCCCCCC(=O)O[C@@H](CO)COC(=O)CCCCCCCCCCCCCCCCC` [DG 18:0_18:1_0:0] (ion (formula + adduct): [C39H74O5+NH4] 1+), the “TIMS collisional cross section” value (sample type: Liver) amounted to 269.6 Å².
The same measure, in the same setting: the figure for `CCCCC/C=C\C/C=C\C/C=C\C/C=C\CCCC(=O)O[C@H](COC(=O)CCCCCCC/C=C\CCCCCCCC)COC(=O)CCCCCCCCCCC/C=C\CCCCCCCC` [TG 18:1_20:4_22:1] (ion (formula + adduct): [C63H110O6+NH4] 1+) is 339.9 Å².
In the case of `CCCCC/C=C\C[C@H](O)/C=C/C=C\C/C=C\CCCC(=O)O[C@H](COC(=O)CCCCCCCCCCCCCCC)COP(=O)([O-])OCC[N+](C)(C)C` [Oxidized PC 16:0@_20:4] (ion (formula + adduct): [C44H80NO9P+H] 1+), under “sample type: plasma”, the “TIMS collisional cross section” value was found to be 289.9 ± 0.36 Å².
For the compound `CCCC/C=C\CCCCCCCC(=O)O[C@@H](COC(=O)CCCCCCC/C=C\C/C=C\CCCCC)COC(=O)CCCCCCCCCCC` [TG 12:0_14:1_18:2] (ion (formula + adduct): [C47H84O6+NH4] 1+), where the note is “sample type: plasma”, the “TIMS collisional cross section” value is recorded as 293.8 Å².
On to `CC/C=C\C/C=C\C/C=C\C/C=C\C/C=C\CCCC(=O)O[C@H](COC(=O)CCCCCCCCCCCCCCC)COP(=O)([O-])OCC[N+](C)(C)C` [PC 16:0_20:5] (ion (formula + adduct): [C44H78NO8P+H] 1+), for which, where the note is “sample type: Liver”, the “TIMS collisional cross section” value was determined as 285.7 Å².
In the case of `CC/C=C\C/C=C\C/C=C\C/C=C\C/C=C\C/C=C\CCC(=O)O[C@H](COC(=O)CCCC/C=C\C/C=C\C/C=C\CCCCC)COP(=O)([O-])OCC[N+](C)(C)C` [PC 18:3_22:6@] (ion (formula + adduct): [C48H78NO8P+H] 1+), the “TIMS collisional cross section” value (sample type: Liver) is given as 289.6 Å².
With `CCCCCCCC/C=C\CCCCCCCCCC(=O)OC[C@@H](COC(=O)CCCCCCCCCCCCCCC)OC(=O)CCCCCCCCCCCCCCC` [TG 16:0_16:0_20:1] (ion (formula + adduct): [C55H104O6+NH4] 1+), where the note is “sample type: HeLa”, the “TIMS collisional cross section” value worked out at 324.7 Å².
In the case of `CC/C=C\C/C=C\C/C=C\C/C=C\C/C=C\C/C=C\CCC(=O)O[C@H](COC(=O)CCCCCCCCCCCCCCCCCC)COP(=O)([O-])OCC[N+](C)(C)C` [PC 19:0@_22:6] (ion (formula + adduct): [C49H86NO8P+H] 1+), the “TIMS collisional cross section” value (sample type: Liver) was found to be 300.5 Å².
On the same count and under the same terms, the figure for `CC/C=C\C/C=C\C/C=C\C/C=C\C/C=C\C/C=C\CCC(=O)OC[C@@H](COC(=O)CCCCCCCCCCC)OC(=O)CCCCCCCCCCCCCCC` [TG 12:0_16:0_22:6] (ion (formula + adduct): [C53H90O6+NH4] 1+) is 307.6 Å².
In the case of `CCCCCCCCCCCCCCCCCCCCCC(=O)OC[C@@H](COC(=O)CCCCCCCCCCCCCCC)OC(=O)CCCCCCCCCCCCCCCCCCC` [TG 16:0_20:0_22:0] (ion (formula + adduct): [C61H118O6+NH4] 1+), the “TIMS collisional cross section” value is, setting by setting: (sample type: HeLa) 344.3 Å²; (sample type: plasma) 343.5 Å².
On to `CC/C=C\C/C=C\C/C=C\CCCCCCCC(=O)OC[C@@H](O)COP(=O)([O-])OCC[N+](C)(C)C` [LPC 18:3] (ion (formula + adduct): [C26H48NO7P+H] 1+), for which the “TIMS collisional cross section” value (sample type: plasma) is listed as 224.9 Å².
Take `CCCCCCCC/C=C\CCCCCCCCCCCC(=O)OC[C@@H](COC(=O)CCCCCCCCCCCCCCC)OC(=O)CCCCCCC/C=C\CCCCCCCC` [TG 16:0_18:1_22:1] (ion (formula + adduct): [C59H110O6+NH4] 1+): for the setting “sample type: Liver”, the “TIMS collisional cross section” value came out at 334.2 Å².
Take `CCCCCC/C=C\CCCCCCCCCCOC[C@@H](O)COP(=O)([O-])OCC[N+](C)(C)C` [LPC O- 18:1] (ion (formula + adduct): [C26H54NO6P+H] 1+): the “TIMS collisional cross section” value worked out at 233.6 Å² (sample type: HeLa) and 233.67 ± 0.64 Å² (sample type: plasma).
For `CCCCCCCC/C=C\CCCCCCCC(=O)OC[C@@H](COC(=O)CCCCCCCCCCCCCCCCC)OC(=O)CCCCCCCCCCCCCCCCC` [TG 18:0_18:0_18:1] (ion (formula + adduct): [C57H108O6+NH4] 1+), for the setting “sample type: plasma”, the “TIMS collisional cross section” value came out at 330.6 Å².
Take `CC/C=C\C/C=C\C/C=C\C/C=C\C/C=C\C/C=C\CCC(=O)O[C@H](COC(=O)CCCC/C=C\C/C=C\C/C=C\CCCCC)COP(=O)(O)OCCN` [PE 18:3_22:6] (ion (formula + adduct): [C45H72NO8P+H] 1+): where the note is “sample type: Liver”, the “TIMS collisional cross section” value came out at 276.7 Å².
On to `CCCCCCCCCCCCCCCCCCCCCC(=O)OC[C@@H](COC(=O)CCCCCCCCCCCCCCC)OC(=O)CCCCCCCCCCCCCCCCC` [TG 16:0_18:0_22:0] (ion (formula + adduct): [C59H114O6+NH4] 1+), for which the “TIMS collisional cross section” value is given as 337.8 Å² (sample type: HeLa), 338.3 Å² (sample type: Liver) and 337.55 ± 0.21 Å² (sample type: plasma).
Taken in the same sequence, the figures for `CCCCC/C=C\C/C=C\C/C=C\CCCCCCC(=O)OC[C@@H](O)COP(=O)(O)OCCN` [LPE 20:3] (ion (formula + adduct): [C25H46NO7P+H] 1+) were 216.8 Å², 217.2 Å² and 217.3 Å².
Take `CC/C=C\C/C=C\C/C=C\C/C=C\C/C=C\CCCC(=O)O[C@H](CO/C=C\CCCCCCCCCCCCCCCCCC)COP(=O)([O-])OCC[N+](C)(C)C` [PC P- 20:0@_20:5] (ion (formula + adduct): [C48H86NO7P+H] 1+): the “TIMS collisional cross section” value (sample type: HeLa) is 299.9 Å².
On to `CCCCCCCCCCCCCC(=O)OC[C@@H](COC(=O)CCCCCCCCCCCC)OC(=O)CCCCCCCCCCCCC` [TG 13:0_14:0_14:0] (ion (formula + adduct): [C44H84O6+NH4] 1+), for which, where the note is “sample type: plasma”, the “TIMS collisional cross section” value is 292.3 Å².
Consider `CCCCCC/C=C\CCCCCCCC(=O)O[C@H](COC(=O)CCCCCCCCCCCCC)COP(=O)([O-])OCC[N+](C)(C)C` [PC 14:0_16:1@] (ion (formula + adduct): [C38H74NO8P+H] 1+), for which the “TIMS collisional cross section” value (sample type: HeLa) worked out at 276.5 Å².
For the compound `CC/C=C\C/C=C\C/C=C\C/C=C\C/C=C\C/C=C\CCC(=O)OC[C@@H](COC(=O)CCCCCCC/C=C\CCCCCCCC)OC(=O)CCCCCCC/C=C\C/C=C\CCCCC` [TG 18:1_18:2_22:6] (ion (formula + adduct): [C61H100O6+NH4] 1+), where the note is “sample type: plasma”, the “TIMS collisional cross section” value is reported as 329 Å².
Still for that read-out and setting: the figure for `CCCCC/C=C\C/C=C\C/C=C\C/C=C\CCCC(=O)OC[C@@H](COC(=O)CCCCCCCCCCCCC)OC(=O)CCCCCCCCCCCCCCC` [TG 14:0_16:0_20:4] (ion (formula + adduct): [C53H94O6+NH4] 1+) is 314.2 Å².
`CCCCC/C=C\C/C=C\CCCCCCCCCCCC(=O)OC[C@@H](COC(=O)CCCCCCC/C=C\CCCCCCCC)OC(=O)CCCCCCCCCCC/C=C\CCCCCCCC` [TG 18:1_22:1_22:2] (ion (formula + adduct): [C65H118O6+NH4] 1+): the “TIMS collisional cross section” value (sample type: Liver) is 346.9 Å².
For `CCCC/C=C\CCCCCCCCCCOC[C@@H](O)COP(=O)([O-])OCC[N+](C)(C)C` [LPC O- 16:1] (ion (formula + adduct): [C24H50NO6P+H] 1+), the “TIMS collisional cross section” value came out at 225.4 Å² (sample type: HeLa) and 224.8 Å² (sample type: plasma).
As to `CCCCC/C=C\C/C=C\CCCCCCCC(=O)OC[C@@H](COC(=O)CCCCCCCCCCCCC)OC(=O)CCCCCCC/C=C\CCCCCC` [TG 14:0_16:1_18:2] (ion (formula + adduct): [C51H92O6+NH4] 1+), the “TIMS collisional cross section” value came to 306.1 Å² (sample type: Liver) and 307.8 ± 0.92 Å² (sample type: plasma).
As to `CCCCC/C=C\C/C=C\CCCCCCCC(=O)OC[C@@H](COC(=O)CCCCCCC/C=C\CCCCCCC)OC(=O)CCCCCCC/C=C\CCCCCCCC` [TG 17:1_18:1_18:2] (ion (formula + adduct): [C56H100O6+NH4] 1+), the “TIMS collisional cross section” value amounted to 320.8 Å² (sample type: HeLa) and 320.6 Å² (sample type: plasma).
Turning to `CCCCC/C=C\C/C=C\C/C=C\C/C=C\CCCC(=O)O[C@H](CO)COP(=O)(O)OCCN` [LPE 20:4] (ion (formula + adduct): [C25H44NO7P+H] 1+), the “TIMS collisional cross section” value (sample type: plasma) was determined as 214.45 ± 0.92 Å².
As for `CCCCCCCCCCCCCCCCCC(=O)OC[C@H](COP(=O)(O)OCCN)OC(=O)CCCCCCCCCCCCCCCCC` [PE 18:0_18:0] (ion (formula + adduct): [C41H82NO8P+Na] 1+), the “TIMS collisional cross section” value reads like this: (sample type: HeLa) 286.4 Å²; (sample type: Liver) 286.2 Å².
For the compound `CCCCC/C=C\C/C=C\CCCCCCCC(=O)O[C@H](CO)COP(=O)(O)OCCN` [LPE 18:2] (ion (formula + adduct): [C23H44NO7P+H] 1+), for the setting “sample type: plasma”, the “TIMS collisional cross section” value was 211.2 ± 0.85 Å².
As to `CCCCCC/C=C\CCCCCCCCCC(=O)O[C@H](CO)COP(=O)(O)OCCN` [LPE 18:1] (ion (formula + adduct): [C23H46NO7P+H] 1+), the “TIMS collisional cross section” value (sample type: HeLa) was determined as 218.1 Å² and the “TIMS collisional cross section” value (sample type: Liver) is 215.4 Å².

The record behind these values is the supplement of paper PMC6965134.
